From article PMC10920384 (Heliyon, 2024)
Like-named read-outs stand apart in the source and are kept apart here. Marks after values point to notes of the source that are not given here.

Tests used:
[1] = test system: α-glucosidase from Saccharomyces cerevisiae; assay: α-Glucosidase inhibitory assay; type: biochemical; conditions: mean ± SD, N = 3
[2] = target: dipeptidyl peptidase-IV (DPP-IV) from porcine kidney (Sus scrofa, UniProt P22411); assay: Dipeptidyl peptidase-IV; type: biochemical; conditions: for inhibition at 50 µg/mL: read-out: % Inhibition at 50 μg/mL (DPP-IV)
dipeptidyl peptidase-IV (DPP-IV) from porcine kidney, sequence (P22411 whole entry): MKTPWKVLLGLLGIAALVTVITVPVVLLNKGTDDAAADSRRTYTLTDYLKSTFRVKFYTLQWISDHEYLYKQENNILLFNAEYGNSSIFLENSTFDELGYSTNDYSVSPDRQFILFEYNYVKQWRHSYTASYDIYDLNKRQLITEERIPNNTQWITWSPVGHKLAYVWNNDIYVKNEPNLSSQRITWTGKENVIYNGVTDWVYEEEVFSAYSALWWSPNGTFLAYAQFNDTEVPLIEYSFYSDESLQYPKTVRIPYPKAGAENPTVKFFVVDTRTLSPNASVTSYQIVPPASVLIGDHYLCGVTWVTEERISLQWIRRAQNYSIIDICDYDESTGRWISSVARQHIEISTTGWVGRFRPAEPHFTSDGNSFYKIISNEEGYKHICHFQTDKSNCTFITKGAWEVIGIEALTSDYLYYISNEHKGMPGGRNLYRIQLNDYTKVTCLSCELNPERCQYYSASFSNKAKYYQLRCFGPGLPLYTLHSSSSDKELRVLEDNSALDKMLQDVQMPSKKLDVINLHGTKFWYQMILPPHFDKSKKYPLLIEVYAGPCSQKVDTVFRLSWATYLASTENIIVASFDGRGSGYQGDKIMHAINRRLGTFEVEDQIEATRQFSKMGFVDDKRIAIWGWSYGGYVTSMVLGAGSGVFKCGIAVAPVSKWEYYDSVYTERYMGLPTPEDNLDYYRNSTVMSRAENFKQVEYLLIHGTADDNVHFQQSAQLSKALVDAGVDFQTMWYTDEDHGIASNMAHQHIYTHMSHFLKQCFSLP

Row | SMILES | % Inhibition at 10 μg/mL (α-glucosidase) [1] [%] | IC50 (α-glucosidase inhibition) [1] [mg/L] | % Inhibition at 50 μg/mL (DPP-IV) ([2]; mean ± SD, N = 3) | IC50 ([2]; read-out: IC50 (DPP-IV inhibition), mean ± SD, N = 3) [µM] | IC50 [2] [µM] | inhibition at 50 µg/mL [2] [%] | IC50 (DPP-IV inhibition) ([2]; mean ± SD, N = 3) [mg/L]
1 | COc1cc(OC)c(C(=O)/C=C/c2ccccc2)c(O)c1O [Compound 4, 2′,3′-dihydroxy-4′,6′-dimethoxychalcone] | 38.04 ± 1.10 | >10 | 97.37 ± 1.01 ^a % | 28.7 |  |  | 
2 | O=c1cc(-c2ccccc2)oc2cc(O)cc(O)c12 [Compound 5, chrysin] | 27.31 ± 1.04 | >10 |  |  | > 197 | 41.2 ± 1.03 | 
3 | COc1cc(OC)c2c(c1O)OC(c1ccccc1)CC2=O (stereo not shown) [Compound 7, 8-hydroxy-5,7-dimethoxyflavanone] | 34.57 ± 1.43 | >10 |  |  | > 166 | 27.8 ± 2.96 | 
4 | O=C1C[C@@H](c2ccccc2)Oc2cc(O)cc(O)c21 [Compound 8, pinocembrin] | 37.30 ± 1.03 | >10 |  |  | > 195 | 30.4 ± 1.9 | 
5 | CC(C)=CCCC(C)=CCCC(C)=CCc1c[nH]c2ccccc12 [Compound 9, 3-Farnesyl indole] | 18.40 ± 1.39 | >10 |  |  | > 156 | 27.1 ± 0.73 | 
6 | COc1cc2c(c(O)c1OC)C(=O)C[C@@H](c1ccccc1)O2 [Compound 10, onysilin] | 28.13 ± 1.46 | >10 | 24.54 ± 2.38% |  |  |  | >50
7 | CC[C@H](C)[C@H](N)C(=O)N1CCC[C@H]1C(=O)N[C@H](C(=O)O)[C@@H](C)CC [Diprotin A, diprotin A, reference compound] |  |  |  |  |  | 77.6 ± 1.18 | 
